Results: the supplement of paper PMC7661543
± gives the standard deviation of the averaged measurements.

Experiments:
Assay in all cases: relative cell number vs DMSO control (72 h) (% of DMSO); higher = less growth inhibition (more cells)
Conditions in all cases: sgRNA knockout: sgNT
BT-20 = test system: BT-20
Method: (§1)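 QMAP-Seq: a pool of 5 breast cancer cell lines (ZR-75-1, SKBR3, HCC-38, MDA-MB-231, BT-20), each carrying 12 doxycycline-inducible Cas9 sgRNA perturbations (11 knockouts plus non-targeting sgNT), was treated with compounds for 72 h at four 10-fold doses (10 nM-10 uM or 1 nM-1 uM range). Barcodes were amplified and sequenced, and cell number was interpolated from 293T spike-in standard curves. The result is expressed as % of the median of DMSO wells. Two biological replicates.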

HCC-38 = test system: HCC-38
Method: as §1

ZR-75-1 = test system: ZR-75-1
Method: as §1

MDA-MB-231 = test system: MDA-MB-231
Method: as §1

SKBR3 = test system: SKBR3
Method: as §1

| SMILES | relative cell number (BT-20; 1 nM) | relative cell number (BT-20; 10 nM) | relative cell number (BT-20; 100 nM) | relative cell number (BT-20; 1000 nM) | relative cell number (HCC-38; 1 nM) | relative cell number (HCC-38; 10 nM) | relative cell number (HCC-38; 100 nM) | relative cell number (HCC-38; 1000 nM) | relative cell number (ZR-75-1; 1 nM) | relative cell number (ZR-75-1; 10 nM) | relative cell number (ZR-75-1; 100 nM) | relative cell number (ZR-75-1; 1000 nM) | relative cell number (MDA-MB-231; 1 nM) | relative cell number (MDA-MB-231; 10 nM) | relative cell number (MDA-MB-231; 100 nM) | relative cell number (MDA-MB-231; 1000 nM) | relative cell number (SKBR3; 1 nM) | relative cell number (SKBR3; 10 nM) | relative cell number (SKBR3; 100 nM) | relative cell number (SKBR3; 1000 nM) | relative cell number (BT-20; 10000 nM) | relative cell number (HCC-38; 10000 nM) | relative cell number (ZR-75-1; 10000 nM) | relative cell number (MDA-MB-231; 10000 nM) | relative cell number (SKBR3; 10000 nM) |
| --- | --- | --- | --- | --- | --- | --- | --- | --- | --- | --- | --- | --- | --- | --- | --- | --- | --- | --- | --- | --- | --- | --- | --- | --- | --- |
| CC(C)(C#N)c1cc(Cn2cncn2)cc(C(C)(C)C#N)c1 [Anastrozole] | 112 ± 1.8 | 103 ± 50 | 116 ± 12 | 114 ± 15 | 106 ± 9.5 | 116 ± 3.1 | 103 ± 5.8 | 115.2 ± 0.88 | 76.6 ± 1.4 | 151 ± 25 | 100 ± 3.4 | 120 ± 17 | 107 ± 8.8 | 110 ± 75 | 121 ± 17 | 115 ± 22 | 123 ± 23 | 90.3 ± 18 | 118 ± 17 | 103 ± 13 |  |  |  |  |  |
| CCN1CCN(c2ccc(Nc3cc(N(C)C(=O)Nc4c(Cl)c(OC)cc(OC)c4Cl)ncn3)cc2)CC1 [BGJ398] |  | 80.6 ± 10 | 104 ± 1.5 | 88.5 ± 15 |  | 93.6 ± 16 | 66.73 ± 0.28 | 60.5 ± 4.7 |  | 77.02 ± 0.32 | 116 ± 13 | 105 ± 14 |  | 81.7 ± 12 | 83.1 ± 16 | 116 ± 2.1 |  | 99.1 ± 6.7 | 106 ± 32 | 67.6 ± 6.6 | 82.8 ± 18 | 58.5 ± 0.79 | 78.1 ± 26 | 65.2 ± 12 | 75 ± 18 |
| COC(=O)[C@]12CCC(C)(C)C[C@H]1[C@H]1C(=O)C=C3[C@@]4(C)C=C(C#N)C(=O)C(C)(C)[C@@H]4CC[C@@]3(C)[C@]1(C)CC2 [BardoxoloneMethyl] |  | 73.5 ± 19 | 66.2 ± 6.3 | 16.2 ± 4 |  | 96 ± 7.2 | 99.93 ± 0.61 | 26.6 ± 3.4 |  | 74.7 ± 11 | 49.3 ± 14 | 14.3 ± 2.1 |  | 109 ± 22 | 66.5 ± 37 | 16.4 ± 11 |  | 100.4 ± 0.77 | 66.6 ± 13 | 7.42 ± 0.66 | 4.97 ± 2.9 | 5.24 ± 0.59 | 5.42 ± 4.3 | 5.3 ± 1.9 | 4.14 ± 0.45 |
| Cn1c(CCCC(=O)O)nc2cc(N(CCCl)CCCl)ccc21 [Bendamustine] |  | 90.6 ± 14 | 114 ± 25 | 112 ± 33 |  | 104 ± 6 | 103 ± 1.1 | 109 ± 17 |  | 82.4 ± 11 | 123 ± 6.9 | 63.7 ± 27 |  | 111 ± 13 | 123 ± 10 | 95.8 ± 17 |  | 86.7 ± 9.2 | 115 ± 21 | 118 ± 21 | 124 ± 14 | 115 ± 4.3 | 97.9 ± 9.2 | 127 ± 3.8 | 109 ± 44 |
| C=C(C)[C@@H]1CC[C@]2(C(=O)O)CC[C@]3(C)[C@H](CC[C@@H]4[C@@]5(C)CC[C@H](O)C(C)(C)[C@@H]5CC[C@]43C)[C@@H]12 [BetulinicAcid] |  | 86.7 ± 12 | 78.6 ± 3.6 | 86.4 ± 13 |  | 106 ± 10 | 82.2 ± 9.4 | 98 ± 32 |  | 90.9 ± 11 | 97.1 ± 4.8 | 94.5 ± 43 |  | 74.3 ± 2.1 | 92.9 ± 11 | 69.8 ± 21 |  | 76.3 ± 23 | 95 ± 13 | 86 ± 5.5 | 108 ± 1.7 | 96.4 ± 1.5 | 110 ± 11 | 117 ± 24 | 96.4 ± 11 |
| C=C(c1ccc(C(=O)O)cc1)c1cc2c(cc1C)C(C)(C)CCC2(C)C [Bexarotene] |  | 122 ± 11 | 119 ± 25 | 112 ± 33 |  | 85.51 ± 0.16 | 90.4 ± 9 | 94.9 ± 8 |  | 97.6 ± 34 | 78.4 ± 27 | 72.2 ± 19 |  | 146 ± 83 | 73.6 ± 3.8 | 95.3 ± 16 |  | 107 ± 4.7 | 72.8 ± 16 | 71.6 ± 34 | 137 ± 30 | 108 ± 8.4 | 70.3 ± 5.1 | 80.2 ± 31 | 90 ± 11 |
| Cc1ccc2c(c1)C(=O)C1(O)CCN(c3ccccc3)C1=N2 (stereo not given) [Blebbistatin] |  | 115.9 ± 0.31 | 128 ± 6.2 | 130 ± 4 |  | 125 ± 10 | 118 ± 4.2 | 115 ± 13 |  | 108 ± 9.9 | 112 ± 9.8 | 98.1 ± 39 |  | 110 ± 16 | 138.4 ± 0.51 | 144 ± 49 |  | 114 ± 20 | 111 ± 16 | 126 ± 11 | 125 ± 46 | 69.5 ± 7.5 | 84.1 ± 7.3 | 97 ± 12 | 96.52 ± 0.14 |
| CC(C)C[C@H](NC(=O)[C@H](Cc1ccccc1)NC(=O)c1cnccn1)B(O)O [Bortezomib] | 71.71 ± 0.27 | 74.6 ± 13 | 24.7 ± 9.2 | 16.7 ± 2.3 | 91.8 ± 5.8 | 36.8 ± 2.4 | 4.58 ± 0.053 | 7.2 ± 1.2 | 72 ± 20 | 80 ± 17 | 17.2 ± 3.5 | 13.4 ± 2.8 | 86.7 ± 9.3 | 65.2 ± 19 | 6.68 ± 5 | 13.2 ± 6.6 | 94.4 ± 13 | 34.3 ± 8 | 14.2 ± 4.1 | 9.59 ± 4 |  |  |  |  |  |
| C[C@H]1CCC/C=C/[C@@H]2C[C@H](O)C[C@H]2[C@H](O)/C=C/C(=O)O1 [BrefeldinA] |  | 84.9 ± 25 | 25.6 ± 6.2 | 31.1 ± 3.5 |  | 92.1 ± 16 | 54.8 ± 7.7 | 35.3 ± 11 |  | 86.8 ± 14 | 18.7 ± 2.6 | 8.03 ± 3.4 |  | 108 ± 22 | 14.1 ± 7.9 | 7.55 ± 2.6 |  | 89.9 ± 43 | 17.7 ± 11 | 5.96 ± 2.5 | 31.5 ± 9.4 | 23.6 ± 7.5 | 5.82 ± 3.4 | 9.31 ± 2.6 | 6.07 ± 0.93 |
| Cc1cc2c(F)c(Oc3ncnn4cc(OC[C@@H](C)O)c(C)c34)ccc2[nH]1 [Brivanib] |  | 119 ± 35 | 78.5 ± 1.6 | 109 ± 18 |  | 96.9 ± 6.4 | 84.3 ± 9.9 | 96.7 ± 2.2 |  | 86.5 ± 18 | 66.1 ± 24 | 111 ± 19 |  | 107 ± 31 | 106 ± 25 | 122 ± 9.6 |  | 112 ± 6.1 | 61.5 ± 12 | 82.4 ± 11 | 93.9 ± 4 | 84.119 ± 0.073 | 53.5 ± 20 | 58.7 ± 9.5 | 60.9 ± 28 |
| CC[C@H](Nc1ncnc2[nH]cnc12)c1nc2cccc(F)c2c(=O)n1-c1ccccc1 [CAL101] |  | 96.9 ± 17 | 97.88 ± 0.52 | 88.6 ± 25 |  | 87.5 ± 13 | 96.1 ± 14 | 86.7 ± 14 |  | 76.6 ± 14 | 95.6 ± 7.7 | 84.5 ± 3.2 |  | 122 ± 4.8 | 68.4 ± 19 | 118 ± 38 |  | 77.4 ± 19 | 91.3 ± 18 | 87.3 ± 49 | 88.8 ± 26 | 83.8 ± 32 | 72 ± 15 | 110 ± 9.4 | 84.2 ± 3.7 |
| COc1cc2nccc(Oc3ccc(NC(=O)C4(C(=O)Nc5ccc(F)cc5)CC4)cc3)c2cc1OC [Cabozantinib] |  | 110 ± 3.4 | 98.3 ± 13 | 94.5 ± 5 |  | 87.7 ± 22 | 104 ± 2.3 | 97.8 ± 2.8 |  | 132 ± 14 | 102 ± 2.8 | 111 ± 40 |  | 103 ± 8.6 | 88.2 ± 3.7 | 100 ± 3.8 |  | 128 ± 10 | 130 ± 11 | 82.9 ± 26 | 49.8 ± 18 | 61.9 ± 9.7 | 28.3 ± 19 | 36.7 ± 24 | 25.8 ± 17 |
